{
  "source": "patent US6693216B2",
  "about": "“Calcium double salts” (Nutrinova Nutrition Specialties & Food Ingredients GmbH, priority 2000, dated 2004)",
  "key": {"Clostridia": {"tested_on": "Clostridia", "conditions": "Part I, 1 g/l in apple juice pH 4.5, 25° C."}, "Molds I": {"tested_on": "Molds I", "conditions": "Part I, 1 g/l in apple juice pH 4.5, 25° C."}, "Yeasts": {"tested_on": "Yeasts", "conditions": "Part I, 1 g/l in apple juice pH 4.5, 25° C."}, "Molds II": {"tested_on": "Molds II", "conditions": "Part I, 1 g/l in apple juice pH 4.5, 25° C."}, "[1]": {"conditions": "sealed", "from_the_text": "Salts prepared as in example 1 were dried, stored under the specified conditions without the addition of other substances and checked at regular intervals visually for discoloration: […]"}, "Gram-positive bacteria": {"tested_on": "Gram-positive bacteria", "conditions": "Part I, 1 g/l in apple juice pH 4.5, 25° C."}, "Gram-negative bacteria": {"tested_on": "Gram-negative bacteria", "conditions": "Part I, 1 g/l in apple juice pH 4.5, 25° C."}, "Thermophilic bacilli": {"tested_on": "Thermophilic bacilli", "conditions": "Part I, 1 g/l in apple juice pH 4.5, 25° C."}, "Acetic acid bacteria": {"tested_on": "Acetic acid bacteria", "conditions": "Part I, 1 g/l in apple juice pH 4.5, 25° C."}, "Lactic acid bacteria": {"tested_on": "Lactic acid bacteria", "conditions": "Part I, 1 g/l in apple juice pH 4.5, 25° C."}, "Bacilli": {"tested_on": "Bacilli", "conditions": "Part I, 1 g/l in apple juice pH 4.5, 25° C."}, "[2]": {"conditions": "1 day after inoculation (1.5 × 10^4)"}, "[3]": {"conditions": "3 days after inoculation (1.5 × 10^4)"}, "[4]": {"conditions": "7 days after inoculation (1.5 × 10^4)"}, "[5]": {"conditions": "14 days after inoculation (1.5 × 10^4)"}},
  "note": "Read-outs that look alike come from different tables or passages of the source.",
  "data": [
    {"smiles": "C/C=C/C=C/C(=O)[O-].CCC(=O)[O-].[Ca+2]", "note": "[calcium propionate sorbate]", "values": [
      {"measurement": "Number of surviving microorganisms per g of contaminated sample, Clostridia", "setting": "Clostridia; 1 day after inoculation (1.4 × 10^4)", "result": "1.3 × 10^3 CFU/g"},
      {"measurement": "Number of surviving microorganisms per g of contaminated sample, Clostridia", "setting": "Clostridia; 3 days after inoculation (1.4 × 10^4)", "result": 800, "unit": "CFU/g"},
      {"measurement": "Number of surviving microorganisms per g of contaminated sample, Clostridia", "setting": "Clostridia; 7 days after inoculation (1.4 × 10^4)", "result": 310, "unit": "CFU/g"},
      {"measurement": "Number of surviving microorganisms per g of contaminated sample, Clostridia", "setting": "Clostridia; 14 days after inoculation (1.4 × 10^4)", "result": 55, "unit": "CFU/g"},
      {"measurement": "Number of surviving microorganisms per g of contaminated sample, Molds I", "setting": "Molds I; 1 day after inoculation (1.7 × 10^4)", "result": "4.0 × 10^3 CFU/g"},
      {"measurement": "Number of surviving microorganisms per g of contaminated sample, Molds I", "setting": "Molds I; 3 days after inoculation (1.7 × 10^4)", "result": 700, "unit": "CFU/g"},
      {"measurement": "Number of surviving microorganisms per g of contaminated sample, Molds I", "setting": "Molds I; 7 days after inoculation (1.7 × 10^4)", "result": "<100", "unit": "CFU/g"},
      {"measurement": "Number of surviving microorganisms per g of contaminated sample, Molds I", "setting": "Molds I; 14 days after inoculation (1.7 × 10^4)", "result": "<10", "unit": "CFU/g"},
      {"measurement": "Number of surviving microorganisms per g of contaminated sample, Yeasts", "setting": "Yeasts; 1 day after inoculation (2.5 × 10^4)", "result": "8.5 × 10^4 CFU/g"},
      {"measurement": "Number of surviving microorganisms per g of contaminated sample, Yeasts", "setting": "Yeasts; 3 days after inoculation (2.5 × 10^4)", "result": "5.0 × 10^4 CFU/g"},
      {"measurement": "Number of surviving microorganisms per g of contaminated sample, Yeasts", "setting": "Yeasts; 7 days after inoculation (2.5 × 10^4)", "result": "1.2 × 10^3 CFU/g"},
      {"measurement": "Number of surviving microorganisms per g of contaminated sample, Yeasts", "setting": "Yeasts; 14 days after inoculation (2.5 × 10^4)", "result": 10, "unit": "CFU/g"},
      {"measurement": "Number of surviving microorganisms per g of contaminated sample, Molds II", "setting": "Molds II; [2]", "result": "1.1 × 10^3 CFU/g"},
      {"measurement": "Number of surviving microorganisms per g of contaminated sample, Molds II", "setting": "Molds II; [3]", "result": 80, "unit": "CFU/g"},
      {"measurement": "Number of surviving microorganisms per g of contaminated sample, Molds II", "setting": "Molds II; [4]", "result": 50, "unit": "CFU/g"},
      {"measurement": "Number of surviving microorganisms per g of contaminated sample, Molds II", "setting": "Molds II; [5]", "result": "<10", "unit": "CFU/g"},
      {"measurement": "Time after yellow-brown discoloration of a 1% strength aqueous solution", "setting": "[1]; dark at 7° C.", "result": ">12", "unit": "months/>12 months"},
      {"measurement": "Time after yellow-brown discoloration of the powder", "setting": "[1]; dark at 7° C.", "result": 12, "unit": "months/>12 months"},
      {"measurement": "Time after yellow-brown discoloration of a 1% strength aqueous solution", "setting": "[1]; dark at 25° C.", "result": ">12", "unit": "months/>12 months"},
      {"measurement": "Time after yellow-brown discoloration of the powder", "setting": "[1]; dark at 25° C.", "result": 12, "unit": "months/>12 months"},
      {"measurement": "Time after yellow-brown discoloration of a 1% strength aqueous solution", "setting": "[1]; under sunlight at 7° C.", "result": 12, "unit": "months/12 months"},
      {"measurement": "Time after yellow-brown discoloration of the powder", "setting": "[1]; under sunlight at 7° C.", "result": 12, "unit": "months/12 months"},
      {"measurement": "Time after yellow-brown discoloration of a 1% strength aqueous solution", "setting": "[1]; under sunlight at 25° C.", "result": 12, "unit": "months/12 months"},
      {"measurement": "Time after yellow-brown discoloration of the powder", "setting": "[1]; under sunlight at 25° C.", "result": 12, "unit": "months/12 months"},
      {"measurement": "Number of surviving microorganisms per g of contaminated sample, Gram-positive bacteria", "setting": "Gram-positive bacteria; 1 day after inoculation (2.6 × 10^4)", "result": "7.0 × 10^4 CFU/g"},
      {"measurement": "Number of surviving microorganisms per g of contaminated sample, Gram-positive bacteria", "setting": "Gram-positive bacteria; 3 days after inoculation (2.6 × 10^4)", "result": "7.0 × 10^3 CFU/g"},
      {"measurement": "Number of surviving microorganisms per g of contaminated sample, Gram-positive bacteria", "setting": "Gram-positive bacteria; 7 days after inoculation (2.6 × 10^4)", "result": 400, "unit": "CFU/g"},
      {"measurement": "Number of surviving microorganisms per g of contaminated sample, Gram-positive bacteria", "setting": "Gram-positive bacteria; 14 days after inoculation (2.6 × 10^4)", "result": "<10", "unit": "CFU/g"},
      {"measurement": "Number of surviving microorganisms per g of contaminated sample, Gram-negative bacteria", "setting": "Gram-negative bacteria; 1 day after inoculation (2.4 × 10^4)", "result": "3.5 × 10^4 CFU/g"},
      {"measurement": "Number of surviving microorganisms per g of contaminated sample, Gram-negative bacteria", "setting": "Gram-negative bacteria; 3 days after inoculation (2.4 × 10^4)", "result": "1.7 × 10^3 CFU/g"},
      {"measurement": "Number of surviving microorganisms per g of contaminated sample, Gram-negative bacteria", "setting": "Gram-negative bacteria; 7 days after inoculation (2.4 × 10^4)", "result": 900, "unit": "CFU/g"},
      {"measurement": "Number of surviving microorganisms per g of contaminated sample, Gram-negative bacteria", "setting": "Gram-negative bacteria; 14 days after inoculation (2.4 × 10^4)", "result": "<10", "unit": "CFU/g"},
      {"measurement": "Number of surviving microorganisms per g of contaminated sample, Thermophilic bacilli", "setting": "Thermophilic bacilli; 1 day after inoculation (1.3 × 10^4)", "result": "1.1 × 10^3 CFU/g"},
      {"measurement": "Number of surviving microorganisms per g of contaminated sample, Thermophilic bacilli", "setting": "Thermophilic bacilli; 3 days after inoculation (1.3 × 10^4)", "result": "<100", "unit": "CFU/g"},
      {"measurement": "Number of surviving microorganisms per g of contaminated sample, Thermophilic bacilli", "setting": "Thermophilic bacilli; 7 days after inoculation (1.3 × 10^4)", "result": 10, "unit": "CFU/g"},
      {"measurement": "Number of surviving microorganisms per g of contaminated sample, Thermophilic bacilli", "setting": "Thermophilic bacilli; 14 days after inoculation (1.3 × 10^4)", "result": 5, "unit": "CFU/g"},
      {"measurement": "Antimicrobial activity (words, general statement)", "setting": "all microorganisms used", "result": "inhibited particularly well"},
      {"measurement": "Preservative action against the microorganisms used", "setting": "all microorganisms used; 1 g/l in apple juice pH 4.5, up to 14 days", "result": "acts well and persistently against all microorganisms used, except for bacilli"},
      {"measurement": "Preservative action compared with the single salts", "setting": "all microorganisms used; same concentration, 1 g/l in apple juice pH 4.5", "result": "acts surprisingly better than potassium sorbate (used at the same concentration), in particular against lactic acid bacteria, thermophilic bacilli, yeasts and some molds (molds group II)"},
      {"measurement": "Number of surviving microorganisms per g of contaminated sample, Acetic acid bacteria", "setting": "Acetic acid bacteria; 1 day after inoculation (2.3 × 10^4)", "result": "7.5 × 10^4 CFU/g"},
      {"measurement": "Number of surviving microorganisms per g of contaminated sample, Acetic acid bacteria", "setting": "Acetic acid bacteria; 3 days after inoculation (2.3 × 10^4)", "result": "2.1 × 10^6 CFU/g"},
      {"measurement": "Number of surviving microorganisms per g of contaminated sample, Acetic acid bacteria", "setting": "Acetic acid bacteria; 7 days after inoculation (2.3 × 10^4)", "result": "2.9 × 10^6 CFU/g"},
      {"measurement": "Number of surviving microorganisms per g of contaminated sample, Acetic acid bacteria", "setting": "Acetic acid bacteria; 14 days after inoculation (2.3 × 10^4)", "result": "1.1 × 10^6 CFU/g"},
      {"measurement": "Number of surviving microorganisms per g of contaminated sample, Lactic acid bacteria", "setting": "Lactic acid bacteria; 1 day after inoculation (1.9 × 10^4)", "result": "4.0 × 10^4 CFU/g"},
      {"measurement": "Number of surviving microorganisms per g of contaminated sample, Lactic acid bacteria", "setting": "Lactic acid bacteria; 3 days after inoculation (1.9 × 10^4)", "result": "3.2 × 10^5 CFU/g"},
      {"measurement": "Number of surviving microorganisms per g of contaminated sample, Lactic acid bacteria", "setting": "Lactic acid bacteria; 7 days after inoculation (1.9 × 10^4)", "result": "2.4 × 10^3 CFU/g"},
      {"measurement": "Number of surviving microorganisms per g of contaminated sample, Lactic acid bacteria", "setting": "Lactic acid bacteria; 14 days after inoculation (1.9 × 10^4)", "result": 130, "unit": "CFU/g"},
      {"measurement": "Number of surviving microorganisms per g of contaminated sample, Bacilli", "setting": "Bacilli; [2]", "result": "2.3 × 10^4 CFU/g"},
      {"measurement": "Number of surviving microorganisms per g of contaminated sample, Bacilli", "setting": "Bacilli; [3]", "result": "1.4 × 10^3 CFU/g"},
      {"measurement": "Number of surviving microorganisms per g of contaminated sample, Bacilli", "setting": "Bacilli; [4]", "result": "1.3 × 10^3 CFU/g"},
      {"measurement": "Number of surviving microorganisms per g of contaminated sample, Bacilli", "setting": "Bacilli; [5]", "result": 50, "unit": "CFU/g"}
    ]}
  ]
}
